Laboratory results as given in patent publication US12297203B2, “Pyrrolopyrimidine ITK inhibitors” (ACLARIS THERAPEUTICS, INC., priority 2018, dated 2025).
Read-outs that look alike come from different tables or passages of the source.

Key:
ITK = ITK (Homo sapiens (Human), UniProt Q08881); assay: ITK inhibitor binding potency (LanthaScreen competitive binding assay); settings: read-out: ITK Inh. IC50
Description: The ability of candidate compounds to interact with ITK is quantitated by a competitive binding assay using the LanthaScreen technology developed by Life Technologies. This assay is based on the binding of a proprietary, Alexa Fluor® 647-labeled, ATP-competitive kinase inhibitor (kinase tracer-236) to the ITK expression construct in the presence of a Europium-conjugated antibody, resulting in a FRET (fluorescence resonance energy transfer) signal. Displacement of the kinase tracer by compound results in a lower emission ratio upon excitation of the Europium chelate. Candidate compounds are designed as potential irreversible inhibitors of ITK, capable of ligating to an active site cysteine residue resulting in time dependent covalent binding. The time dependent nature of irreversible inhibition is investigated by performing the binding assay with and without a pre-incubation of compound and ITK. […] The inhibitory potency of candidate compounds is measured in 20 mM HEPES pH 7.5, 10 mM MgCl2, 0.01% BSA, 0.0005% Tween-20, and 2% DMSO in the presence of 10 nM ITK, 2 nM Eu-anti-GST antibody, and 50 nM kinase tracer-236 using a 384-well plate format. Background signal is defined in the absence of ITK and uninhibited signal is defined in the presence of vehicle (2% DMSO) alone. Compounds were evaluated in an 11 point dose-response ranging from 20 uM to 0.34 nM. The binding assays are performed under two preincubation conditions to evaluate time dependence of inhibition. For the pre-incubation assay, ITK and Eu-anti-GST antibody are pre-incubated with compound or vehicle for two hours prior to the addition of kinase tracer. The non-preincubated assay is run under conditions where ITK and Eu-anti-GST antibody are added to a mixture of compound and kinase tracer. IC50 values of compounds are determined using a 4 parameter logistical fit of emission ratio as a function of the concentration of compound.

JAK3 = JAK3 (Homo sapiens (Human), UniProt P52333); assay: JAK3 enzyme activity assay (Caliper mobility shift); format: biochemical; settings: ATP at Km level; read-out: JAK3 Inh. IC50
Description: The ability of candidate compounds to interact with JAK3 is quantitated by a mobility shift assay using an LC3000 instrument developed by Caliper Life Sciences. This assay is based on mobility shift electrophoresis, in which fluorescently labelled product and fluorescently labelled substrate peaks are separated and detected independently. JAK3 product/substrate separation is obtained using the following instrument settings: Pressure=−1.4 psi, Downstream voltage=−2550V and Upstream voltage=−800V. The inhibitory potency of candidate compounds of JAK3 is measured in 20 mM HEPES pH 7.5, 10 mM MgCl2, 0.01% BSA, 0.0005% Tween-20, and 2% DMSO in the presence of 2.5 nM JAK3 (Life Technologies Catalog #PV3855), […] (Anaspec Catalog #AS-64106) and […] (Km level) using a 384-well plate format. Background signal is defined in the absence of enzyme and uninhibited signal is defined in the presence of vehicle (2% DMSO) alone. Compounds were evaluated in an 11 point dose-response ranging from […] to 0.34 nM. IC50 values of compounds are determined using a 4 parameter logistical fit of emission ratio as a function of the concentration of compound.

[1] = system: ITK phosphorylation of its substrate, PLCγ1, at Y783; assay: ITK target modulation assay (PLCγ1 Y783 phosphorylation, anti-CD3 stimulated Jurkat T cells); format: cell-based; settings: anti-CD3 Dynabeads stimulation, read-out: PLC-γ Inh. IC50
Procedure: Target modulation was based upon the ability of a compound to inhibit ITK phosphorylation of its substrate, PLCγ1, at Y783. Human Jurkat T cells (ATCC TIB-152) were plated in V-bottom 96 well plates at 400,000 cells/well in 80 μL medium (RPMI1640 with 10% heat inactivated serum and 55 μM 2-mercaptoethanol and supplemented with glutamine/penicillin/streptomycin). Compounds were added as 10 μL of 10× working stock solutions in medium with 1% DMSO (or medium with 1% DMSO for controls) and placed in a 37° C. incubator with gentle shaking for 1 hour. Stimulation was carried out using anti-CD3 Dynabeads (Invitrogen catalog #1151D) to activate the T cell receptor and mimic antigen presenting cells. Beads were washed and resuspended in medium at 1.84×10^8 beads/ml. Beads were added rapidly to all compound containing and stimulation only wells at 10 μL/well (bead:cell=2:1) with gentle mixing of the bead source between each addition. Wells designated ‘unstimulated’ received 10 μL of media only. The plate was immediately sealed with a plate seal and cells pelleted at 400× g for 4 minutes. Media was removed using a multichannel aspirator, 25 μL of cold hypotonic lysis buffer (VWR M334-100 ml) plus 1×HALT Protease Inhibitor Cocktail (ThermoFisher #78437), 1× Phosphatase Inhibitor Cocktail 2 (Sigma Aldrich #P5726), 1× Phosphatase Inhibitor Cocktail 3 (Sigma Aldrich #P0044) and 2 mM PMSF was added per well. Cells were incubated on ice for 30 minutes to swell the cells then lysed by pipetting 20 times using a multichannel pipet. The plates were then resealed and centrifuged for 5 minutes at 400× g to pellet the cellular debris. Two μL of the soluble component of each sample was spotted onto nitrocellulose and allowed to dry for 30 minutes. Nitrocellulose was wet in 1× Tris Buffer Saline (20 mM Tris pH7.5, 150 mM NaCl) then blocked in LiCOR Odyssey Blocking Buffer (TBS) (LiCOR #927-50000) for 1 hour at room temperature with rocking. Following blocking, nitrocellulose was incubated in LiCOR Odyssey Blocking Buffer (TBS) plus 0.2% Tween20 plus anti-phospho-PLCγ1 (Y783) antibody (CST #2821S) at 1:1000 and anti-PLCγ1 (Abcam #41433) at 1:5000 with gentle rocking overnight at 4° C. Nitrocellulose was then washed four times for 5 minutes each with TBS plus 0.1% Tween20 (TBST) then incubated in LiCOR Odyssey Blocking Buffer (TBS) plus 0.2% Tween20 plus secondary antibodies IRDye 800CW (LiCOR 926-32211) and IRDye 680RD (LiCOR 926-68070) both at 1:15,000 with gentle rocking at room temperature in the dark for 1 hour. Nitrocellulose was then washed four times for 5 minutes each with TBST at room temperature in the dark. A final rinse with TBS was done prior to imaging and quantifying using the LiCOR Odyssey Imager and software respectively.

[2] = system: JAK1/3 phosphorylation of its substrate, STAT5, at Y694; assay: JAK1/3 target modulation assay (IL-2 stimulated STAT5 Y694 phosphorylation in PBMC); format: cell-based; settings: Primary human peripheral blood mononuclear cells, IL-2 25 ng/mL, read-out: IL2-STAT5 Inh. IC50
Procedure: Target modulation was based upon the ability of a compound to inhibit JAK1/3 phosphorylation of its substrate, STAT5, at Y694. Primary human peripheral blood mononuclear cells were plated in V-bottom 96 well plates at 200,000 cells/well in 120 μL medium (RPMI-1640 with 10% fetal bovine serum, 10 mM HEPES buffer, 12.2 mM 2-mercaptoethanol, and supplemented with glutamine/penicillin/streptomycin). Compounds were added as 15 μL of 10× working stock solutions in medium with 1% DMSO (or medium with 1% DMSO for controls) and placed in a 37° C. incubator with gentle shaking for 1 hour. Stimulation was carried out using recombinant human IL-2 (R&D Systems #202-IL-050) to activate JAK1/3. IL-2 stock solution was diluted in media to 250 ng/mL and was added rapidly to all compound containing and stimulation only wells at 15 μL/well (final concentration=25 ng/mL). Wells designated ‘unstimulated’ received 15 μL of media only. The plate was placed back in a 37° C. incubator with gentle shaking for 5 minutes. After stimulation, the plates were immediately sealed with a plate seal, and cells pelleted at 400× g for 5 minutes. Media was removed using a multichannel aspirator, and 75 μL of cold Tris lysis buffer (MSD #R60TX-3) plus 1× Protease Inhibitor Solution (MSD #R70AA-1), 1× Phosphatase Inhibitor I (MSD #R70AA-1), and 1× Phosphatase Inhibitor II (MSD #R70AA-1) was added per well. Cells were incubated at 4° C. with gentle shaking for at least 30 minutes to allow for complete lysis. The plates were removed from 4° C., and 25 μL of lysate from each well was added to the corresponding well on the MSD plate. Samples were analyzed by either an MSD multiplex kit for Phospho-STAT5a,b/Total-STAT5a,b (MSD #K15163D) or an MSD single-plex kit for Phospho-STAT5a,b (MSD #K150IGD). The protocols for the respective kits were followed, and the plates were read on the MSD SECTOR S 600.

ITK, sequence (Q08881 whole entry): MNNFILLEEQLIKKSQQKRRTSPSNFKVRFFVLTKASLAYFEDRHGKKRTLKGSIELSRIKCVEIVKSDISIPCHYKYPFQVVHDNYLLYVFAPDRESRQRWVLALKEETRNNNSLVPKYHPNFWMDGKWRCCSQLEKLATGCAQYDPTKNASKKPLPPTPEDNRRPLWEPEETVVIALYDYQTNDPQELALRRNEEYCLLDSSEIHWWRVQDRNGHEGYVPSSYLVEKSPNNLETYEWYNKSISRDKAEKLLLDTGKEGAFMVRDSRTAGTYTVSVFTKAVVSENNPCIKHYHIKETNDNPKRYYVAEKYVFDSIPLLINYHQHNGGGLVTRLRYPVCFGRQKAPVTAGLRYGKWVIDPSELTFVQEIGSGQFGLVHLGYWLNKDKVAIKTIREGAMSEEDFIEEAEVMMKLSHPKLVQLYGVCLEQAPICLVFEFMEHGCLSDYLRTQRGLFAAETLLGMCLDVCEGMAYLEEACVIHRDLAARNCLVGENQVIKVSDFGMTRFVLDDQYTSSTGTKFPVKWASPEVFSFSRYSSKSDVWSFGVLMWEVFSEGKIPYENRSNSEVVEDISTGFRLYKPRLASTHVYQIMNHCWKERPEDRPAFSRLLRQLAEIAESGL
JAK3, sequence (P52333 781-1124): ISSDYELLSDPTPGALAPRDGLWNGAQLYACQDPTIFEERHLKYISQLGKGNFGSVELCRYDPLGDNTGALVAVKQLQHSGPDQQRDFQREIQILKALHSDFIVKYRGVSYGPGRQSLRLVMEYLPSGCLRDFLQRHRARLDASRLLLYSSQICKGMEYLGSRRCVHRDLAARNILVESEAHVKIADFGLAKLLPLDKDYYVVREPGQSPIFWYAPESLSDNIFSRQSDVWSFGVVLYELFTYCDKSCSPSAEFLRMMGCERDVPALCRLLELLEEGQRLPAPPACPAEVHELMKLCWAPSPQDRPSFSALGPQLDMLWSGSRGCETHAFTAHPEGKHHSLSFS

## C=CC(=O)N1C[C@H](Nc2ncnc3[nH]cc(CC4CCC(CC)C4)c23)CC[C@@H]1C (mixture of isomers) [Example 36, 1-((2S,5R)-5-((5-((3-ethylcyclopentyl)methyl)-7H-pyrrolo[2,3-d]pyrimidin-4-yl)amino)-2-methylpiperidin-1-yl)prop-2-en-1-one]
ITK
  IC50: ≤ 10 nM
JAK3
  IC50: ≤ 10 nM
[1]; Homo sapiens, Jurkat
  IC50: 100 to 1000 nM
[2]; Homo sapiens, PBMC
  IC50: 100 to 1000 nM

## C=CC(=O)N1C[C@H](Nc2ncnc3[nH]cc(C4CC4COC)c23)CC[C@@H]1C (mixture of isomers) [Example 44, 1-((2S,5R)-5-((5-(2-(methoxymethyl)cyclopropyl)-7H-pyrrolo[2,3-d]pyrimidin-4-yl)amino)-2-methylpiperidin-1-yl)prop-2-en-1-one]
ITK
  IC50: ≤ 10 nM
JAK3
  IC50: ≤ 10 nM
[1]; Homo sapiens, Jurkat
  IC50: ≤ 100 nM
[2]; Homo sapiens, PBMC
  IC50: 100 to 1000 nM

## C=CC(=O)N1C[C@H](Nc2ncnc3[nH]cc(C4CC4(F)F)c23)CC[C@@H]1C (mixture of isomers) [Example 47, 1-((2S,5R)-5-((5-(2,2-difluorocyclopropyl)-7H-pyrrolo[2,3-d]pyrimidin-4-yl)amino)-2-methylpiperidin-1-yl)prop-2-en-1-one]
ITK
  IC50: ≤ 10 nM
JAK3
  IC50: ≤ 10 nM
[1]; Homo sapiens, Jurkat
  IC50: ≤ 100 nM
[2]; Homo sapiens, PBMC
  IC50: ≤ 100 nM

## C[C@H]1CC[C@@H](Nc2ncnc3[nH]cc(C4CC4(F)F)c23)CN1C(=O)/C=C/CN(C)C (mixture of isomers) [Example 59, (E)-1-((2S,5R)-5-((5-(2,2-difluorocyclopropyl)-7H-pyrrolo[2,3-d]pyrimidin-4-yl)amino)-2-methylpiperidin-1-yl)-4-(dimethylamino)but-2-en-1-one]
ITK
  IC50: ≤ 10 nM
JAK3
  IC50: 10 to 100 nM
[1]; Homo sapiens, Jurkat
  IC50: ≤ 100 nM

## C=CC(=O)N1CCC[C@@H](Nc2ncnc3[nH]cc(C(=O)[C@H]4CCOC4)c23)C1 (single isomer, unassigned) [Example 11]
ITK
  IC50: 10 to 100 nM
JAK3
  IC50: > 100 nM
[1]; Homo sapiens, Jurkat
  IC50: > 1000 nM
[2]; Homo sapiens, PBMC
  IC50: > 1000 nM

## C=CC(=O)N1CCC[C@@H](Nc2ncnc3[nH]cc(C(=O)[C@@H]4CCOC4)c23)C1 (single isomer, unassigned) [Example 12]
ITK
  IC50: ≤ 10 nM
JAK3
  IC50: 10 to 100 nM
[1]; Homo sapiens, Jurkat
  IC50: > 1000 nM
[2]; Homo sapiens, PBMC
  IC50: > 1000 nM

## C=CC(=O)N1CCC[C@@H](Nc2ncnc3[nH]cc([C@H]4C[C@@H]4COC)c23)C1 (single isomer, unassigned) [Example 25]
ITK
  IC50: ≤ 10 nM
JAK3
  IC50: 10 to 100 nM
[1]; Homo sapiens, Jurkat
  IC50: 100 to 1000 nM
[2]
  IC50: > 1000 nM

## C=CC(=O)N1CCC[C@@H](Nc2ncnc3[nH]cc([C@H]4C[C@@H]4COC)c23)C1 (single isomer, unassigned) [Example 26]
ITK
  IC50: ≤ 10 nM
JAK3
  IC50: ≤ 10 nM
[1]; Human Jurkat T cells
  IC50: ≤ 100 nM
[2]
  IC50: 100 to 1000 nM

## C=CC(=O)N1C[C@@H](Nc2ncnc3[nH]cc(CC4CC4)c23)CC[C@H]1CC (single isomer, unassigned) [Example 39]
ITK
  IC50: ≤ 10 nM
JAK3
  IC50: ≤ 10 nM
[1]; Homo sapiens, Jurkat
  IC50: 100 to 1000 nM
[2]; Homo sapiens, PBMC
  IC50: 100 to 1000 nM

## C=CC(=O)N1C[C@H](Nc2ncnc3[nH]cc([C@H]4C(C)(C)C4(F)F)c23)CC[C@@H]1C (single isomer, unassigned) [Example 53]
ITK
  IC50: ≤ 10 nM
[1]; Homo sapiens, Jurkat
  IC50: 100 to 1000 nM
[2]; Homo sapiens, PBMC
  IC50: ≤ 100 nM

## C=CC(=O)N1CCC[C@@H](Nc2ncnc3[nH]cc([C@@]45CCC[C@@H]4C5(F)F)c23)C1 (single isomer, unassigned) [Example 79, 1-((R)-3-((5-((1R,5S)-6,6-difluorobicyclo[3.1.0]hexan-1-yl)-7H-pyrrolo[2,3-d]pyrimidin-4-yl)amino)piperidin-1-yl)prop-2-en-1-one]
ITK
  IC50: ≤ 10 nM

## C=CC(=O)N1CCC[C@@H](Nc2ncnc3[nH]cc([C@@]45CCC[C@@H]4C5(F)F)c23)C1 (single isomer, unassigned) [Example 79]
JAK3
  IC50: ≤ 10 nM
[1]; Homo sapiens, Jurkat
  IC50: 100 to 1000 nM
[2]; Homo sapiens, PBMC
  IC50: 100 to 1000 nM

## C=CC(=O)N1C[C@H](Nc2ncnc3[nH]cc(C(=O)C(F)(F)F)c23)CC[C@@H]1C [Example 33, 1-((2S,5R)-2-methyl-5-((5-(2,2,2-trifluoroacetyl)-7H-pyrrolo[2,3-d]pyrimidin-4-yl)amino)piperidin-1-yl)prop-2-en-1-one]
ITK
  IC50: ≤ 10 nM
JAK3
  IC50: 10 to 100 nM
[1]; Homo sapiens, Jurkat
  IC50: 100 to 1000 nM
